What was measured:
[1] = test system: Cortex; test: Drug uptake in Sprague-Dawley rat cortex at 9.3 MBq, iv measured after 45 mins by autoradiography in presence of 1 mg/kg BP897; format: ADME, organism-based; design: dose 1 mg/kg, route intravenous; settings: in vivo, 0.75 h
[2] = test system: Striatum; test: Drug uptake in Sprague-Dawley rat striatum at 9.3 MBq, iv measured after 45 mins by autoradiography in presence of 1 mg/kg BP897; format: ADME, organism-based; design: dose 1 mg/kg, route intravenous; settings: in vivo, 0.75 h
[3] = test system: Cortex; test: Drug uptake in Sprague-Dawley rat cortex at 8.5 MBq, iv measured after 45 mins by autoradiography; format: ADME, organism-based; settings: in vivo, 0.75 h
[4] = test system: Striatum; test: Drug uptake in Sprague-Dawley rat striatum at 8.5 MBq, iv measured after 45 mins by autoradiography; format: ADME, organism-based; settings: in vivo, 0.75 h
[5] = Lipophilicity, log D of the compound in n-octanol-phosphate buffered saline at pH 7.4; format: physicochemical
[6] = test system: brain ventricle (Rattus norvegicus); test: Drug uptake in Sprague-Dawley rat brain ventricle at 8.5 MBq, iv measured after 45 mins by autoradiography; settings: in vivo, 0.75 h
[7] = test system: brain ventricle (Rattus norvegicus); test: Drug uptake in Sprague-Dawley rat brain ventricle at 9.3 MBq, iv measured after 45 mins by autoradiography in presence of 1 mg/kg BP897; settings: in vivo, 0.75 h
[8] = molecular target: T1, D(2) dopamine receptor (Homo sapiens, UniProt P14416); test: Agonist activity at human dopamine receptor D2long expressed in CHO10001 cells assessed as stimulation of incorporation [3H]-thymidine incorporation; format: functional, cell-based
T1 sequence (P14416 whole entry): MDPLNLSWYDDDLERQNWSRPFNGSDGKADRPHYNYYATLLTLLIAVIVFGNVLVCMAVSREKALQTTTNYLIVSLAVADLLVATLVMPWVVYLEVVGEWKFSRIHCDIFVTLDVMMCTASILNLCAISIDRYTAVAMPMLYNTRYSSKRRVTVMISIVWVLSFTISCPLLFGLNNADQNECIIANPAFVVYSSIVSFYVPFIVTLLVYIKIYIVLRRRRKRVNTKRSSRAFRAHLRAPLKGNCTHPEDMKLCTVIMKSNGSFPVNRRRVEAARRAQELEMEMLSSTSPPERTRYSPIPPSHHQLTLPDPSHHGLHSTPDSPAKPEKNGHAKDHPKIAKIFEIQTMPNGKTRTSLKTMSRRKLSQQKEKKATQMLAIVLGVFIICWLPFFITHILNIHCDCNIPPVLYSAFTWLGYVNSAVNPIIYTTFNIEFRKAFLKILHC

[9] = molecular target: T2, D(3) dopamine receptor (Homo sapiens, UniProt P35462); test: Agonist activity at human dopamine D3 receptor expressed in CHO dhfr-negative cells assessed as stimulation of [3H]-thymidine incorporation; format: functional, cell-based
T2 sequence (P35462 whole entry): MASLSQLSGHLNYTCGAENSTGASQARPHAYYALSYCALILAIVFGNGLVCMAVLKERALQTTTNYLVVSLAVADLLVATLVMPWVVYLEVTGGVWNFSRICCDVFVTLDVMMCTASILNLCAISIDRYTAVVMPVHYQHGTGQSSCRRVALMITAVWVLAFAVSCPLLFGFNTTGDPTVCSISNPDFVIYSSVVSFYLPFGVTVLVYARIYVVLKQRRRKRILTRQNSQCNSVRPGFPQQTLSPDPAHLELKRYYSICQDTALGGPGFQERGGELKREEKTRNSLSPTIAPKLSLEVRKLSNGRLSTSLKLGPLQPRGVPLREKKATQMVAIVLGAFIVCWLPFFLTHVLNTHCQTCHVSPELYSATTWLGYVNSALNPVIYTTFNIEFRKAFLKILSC

[10] = Displacement of [3H]prazosin from alpha1 adrenoceptor in porcine cerebral cortex membranes; format: cell membranes, Sus scrofa, Membrane
[11] = molecular target: 5-hydroxytryptamine receptor 2A (Sus scrofa, UniProt P50129); test: Displacement of [3H]ketanserin from 5-HT2 receptor in porcine cerebral cortex membranes; format: cell membranes, Membrane
5-hydroxytryptamine receptor 2A, sequence (P50129 whole entry): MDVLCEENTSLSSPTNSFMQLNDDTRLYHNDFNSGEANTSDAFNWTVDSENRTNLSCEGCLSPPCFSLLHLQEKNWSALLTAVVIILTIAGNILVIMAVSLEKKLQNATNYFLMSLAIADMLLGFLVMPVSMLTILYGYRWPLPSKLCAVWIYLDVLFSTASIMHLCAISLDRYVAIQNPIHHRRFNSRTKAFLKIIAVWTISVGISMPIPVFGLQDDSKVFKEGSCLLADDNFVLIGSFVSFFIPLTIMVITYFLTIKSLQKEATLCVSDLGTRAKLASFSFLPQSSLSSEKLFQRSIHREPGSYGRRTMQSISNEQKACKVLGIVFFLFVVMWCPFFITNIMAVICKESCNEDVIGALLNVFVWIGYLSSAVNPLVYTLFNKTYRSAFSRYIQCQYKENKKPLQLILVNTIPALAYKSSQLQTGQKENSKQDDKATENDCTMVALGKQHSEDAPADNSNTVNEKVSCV

[12] = Displacement of [3H][…] from 5-HT1A receptor in porcine cerebral cortex membranes; format: cell membranes, Sus scrofa, Membrane
[13] = molecular target: T3, D(4) dopamine receptor (Homo sapiens, UniProt P21917); test: Displacement of [3H]spiperone from human dopamine D4.4 receptor expressed in CHO cells; format: cell-based
T3 sequence (P21917 whole entry): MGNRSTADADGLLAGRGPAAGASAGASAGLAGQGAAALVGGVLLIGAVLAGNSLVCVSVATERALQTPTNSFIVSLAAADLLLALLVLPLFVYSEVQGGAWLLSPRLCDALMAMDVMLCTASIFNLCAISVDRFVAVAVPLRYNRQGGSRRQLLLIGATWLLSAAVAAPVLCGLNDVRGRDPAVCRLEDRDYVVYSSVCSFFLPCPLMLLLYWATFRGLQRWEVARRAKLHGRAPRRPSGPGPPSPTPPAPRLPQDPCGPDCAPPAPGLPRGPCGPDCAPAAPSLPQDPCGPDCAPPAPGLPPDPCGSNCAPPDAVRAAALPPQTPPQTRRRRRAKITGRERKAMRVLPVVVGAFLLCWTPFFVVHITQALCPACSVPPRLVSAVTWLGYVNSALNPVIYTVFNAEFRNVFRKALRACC

[14] = molecular target: T1, D(2) dopamine receptor; test: Displacement of [3H]spiperone from human dopamine D2long receptor expressed in CHO cells; format: cell-based
[15] = molecular target: D(1A) dopamine receptor (Sus scrofa, UniProt P50130); test: Displacement of [3H][…] from dopamine D1 receptor in porcine cerebral cortex membranes; format: cell membranes, Membrane
D(1A) dopamine receptor, sequence (P50130 whole entry): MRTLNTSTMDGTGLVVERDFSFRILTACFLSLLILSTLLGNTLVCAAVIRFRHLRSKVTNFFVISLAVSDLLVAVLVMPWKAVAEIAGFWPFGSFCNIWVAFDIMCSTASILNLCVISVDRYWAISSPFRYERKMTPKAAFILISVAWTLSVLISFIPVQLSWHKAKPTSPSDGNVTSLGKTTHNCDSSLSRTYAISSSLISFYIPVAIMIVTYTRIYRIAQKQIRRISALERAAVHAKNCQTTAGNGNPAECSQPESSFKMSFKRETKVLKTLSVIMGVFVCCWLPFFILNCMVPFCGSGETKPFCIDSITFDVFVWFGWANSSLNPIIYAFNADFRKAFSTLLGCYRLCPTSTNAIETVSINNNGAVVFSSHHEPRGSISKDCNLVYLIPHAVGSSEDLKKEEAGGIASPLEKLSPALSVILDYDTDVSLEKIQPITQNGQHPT

[16] = molecular target: T2, D(3) dopamine receptor; test: biochemical
Description: Displacement of [3H]spiperone from human dopamine D3 receptor expressed in CHO cells

Drug uptake [1] [cpm/mm2] | Drug uptake [2] [cpm/mm2] | Drug uptake [3] [cpm/mm2] | Drug uptake [4] [cpm/mm2] | logD [5] | Drug uptake [6] [cpm/mm2] | Drug uptake [7] [cpm/mm2] | EC50 [8] [nM] | EC50 [9] [nM] | Ki [10] [nM] | Ki [11] [nM] | Ki [12] [nM] | Ki [13] [nM] | Ki [14] [nM] | Ki [15] [nM] | Ki [16] [nM] | Structure (SMILES)
3120 | 3086 | 32293 | 28851 | 2.07 | 38717 | 18275 | – | – | – | – | – | – | – | – | – | COc1ccccc1N1CCN(CCCCNC(=O)/C=C/c2ccc([18F])cc2)CC1
– | – | – | – | – | – | – | 1.7 | 3.9 | 5.2 | 330 | 28 | 43 | 27 | 1100 | 0.34 | COc1ccccc1N1CCN(CCCCNC(=O)/C=C/c2ccc(F)cc2)CC1
– | – | – | – | – | – | – | – | – | 8 | 250 | 100 | 170 | – | 270 | 0.51 | N#[11C]c1cccc(N2CCN(CCN3CCC(C(F)(F)F)CC3)C2=O)c1

Source: ChEMBL document CHEMBL1287708, “Synthesis, biological evaluation and radiolabelling by 18F-fluoroarylation of a dopamine D3-selective ligand as prospective imaging probe for PET” (Bioorg Med Chem Lett, 2010)
